Laboratory results as given in patent US20180074053A1 (priority 2016, published 2018).
Where two headings read alike, the source gives them in different places.

How the values were obtained:
[1] = tested on: eNOS; assay: eNOS mRNA expression in HUVEC; format: cell-based, human; details: FIG. 15
From the text: It has been shown that activation of MRGD by alamandine plays an important role in vasodilation by increasing nitric oxide (NO) production. NO produced by the endothelium is an important protective molecule in the vasculature and is mainly generated by the enzyme endothelial NO synthase (eNOS) in blood vessels. Enhancing the expression of eNOS has been considered as possible therapeutic strategy for reducing cardiovascular risk.

[2] = target: MCHR1 (Homo sapiens, UniProt Q99705); assay: cell-based
Chain of MCHR1 (Q99705 whole entry): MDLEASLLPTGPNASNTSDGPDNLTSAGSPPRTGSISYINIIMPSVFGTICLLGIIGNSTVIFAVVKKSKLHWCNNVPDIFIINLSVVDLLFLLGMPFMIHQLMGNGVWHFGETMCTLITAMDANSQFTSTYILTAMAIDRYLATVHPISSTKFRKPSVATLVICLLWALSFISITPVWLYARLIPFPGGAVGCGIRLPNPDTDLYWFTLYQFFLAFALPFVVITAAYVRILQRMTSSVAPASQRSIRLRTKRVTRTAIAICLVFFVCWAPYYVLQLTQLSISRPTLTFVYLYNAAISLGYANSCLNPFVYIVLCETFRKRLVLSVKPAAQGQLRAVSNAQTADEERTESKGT
Protocol: (§1) The platform uses ChemiScreen GPCR stable cell lines that are used for real-time calcium flux assays to rapidly, screen a spectrum of GPCRs. […] Percentage activation values were determined upon initial addition of compound(s). Percentage activation and inhibition values were determined for each GPCR relative to the reference compounds.
(§2) Assays were performed according to the manufacturer's instructions. […] The assay plate was read by the FLIPR TETRA® (Molecular Devices, Sunnyvale, Calif.). All assay plate data were subjected to appropriate baseline corrections and the maximum fluorescence values were processed to calculate percentage activation (relative to ECmax reference agonist and vehicle control values).

[3] = target: MRGD (Homo sapiens, UniProt Q8TDS7); assay: cell-based
Chain of MRGD (Q8TDS7 whole entry): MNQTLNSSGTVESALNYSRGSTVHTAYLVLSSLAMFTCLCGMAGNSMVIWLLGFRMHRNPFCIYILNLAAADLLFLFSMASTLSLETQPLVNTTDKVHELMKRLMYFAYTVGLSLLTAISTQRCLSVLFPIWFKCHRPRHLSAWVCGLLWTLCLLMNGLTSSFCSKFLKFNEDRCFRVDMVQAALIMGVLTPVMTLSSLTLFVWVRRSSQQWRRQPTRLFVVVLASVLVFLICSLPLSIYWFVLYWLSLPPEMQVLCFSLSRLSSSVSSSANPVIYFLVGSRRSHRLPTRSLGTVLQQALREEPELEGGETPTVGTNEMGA
Protocol: as §1, §2

[4] = target: NOP (Homo sapiens, UniProt P41146); assay: cell-based
Chain of NOP (P41146 whole entry): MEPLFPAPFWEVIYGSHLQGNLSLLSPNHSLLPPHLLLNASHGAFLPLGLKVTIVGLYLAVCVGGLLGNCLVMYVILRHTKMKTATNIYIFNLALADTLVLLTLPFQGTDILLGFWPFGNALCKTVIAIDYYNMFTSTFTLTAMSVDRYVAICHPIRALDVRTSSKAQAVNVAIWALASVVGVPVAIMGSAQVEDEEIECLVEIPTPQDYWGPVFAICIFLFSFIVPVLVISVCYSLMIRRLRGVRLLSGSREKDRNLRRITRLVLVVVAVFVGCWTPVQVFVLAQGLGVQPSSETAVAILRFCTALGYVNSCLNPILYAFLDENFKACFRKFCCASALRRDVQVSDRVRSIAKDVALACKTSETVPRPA
Protocol: as §1, §2

[5] = target: MC2 (Homo sapiens, UniProt Q01718); assay: cell-based
Protocol: as §1, §2

[6] = target: MC5 (Homo sapiens, UniProt P33032); assay: cell-based
Chain of MC5 (P33032 whole entry): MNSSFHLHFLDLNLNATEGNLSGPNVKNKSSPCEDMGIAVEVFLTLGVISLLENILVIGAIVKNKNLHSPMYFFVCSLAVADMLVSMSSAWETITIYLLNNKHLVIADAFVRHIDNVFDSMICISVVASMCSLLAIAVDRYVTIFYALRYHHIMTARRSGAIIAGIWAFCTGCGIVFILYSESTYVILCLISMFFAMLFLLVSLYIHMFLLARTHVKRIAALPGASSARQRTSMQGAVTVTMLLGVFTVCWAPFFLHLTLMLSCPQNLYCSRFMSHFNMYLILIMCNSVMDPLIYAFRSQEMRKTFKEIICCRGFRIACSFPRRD
Protocol: as §1, §2

[7] = target: MCHR2 (Homo sapiens, UniProt Q969V1); assay: cell-based
Chain of MCHR2 (Q969V1 whole entry): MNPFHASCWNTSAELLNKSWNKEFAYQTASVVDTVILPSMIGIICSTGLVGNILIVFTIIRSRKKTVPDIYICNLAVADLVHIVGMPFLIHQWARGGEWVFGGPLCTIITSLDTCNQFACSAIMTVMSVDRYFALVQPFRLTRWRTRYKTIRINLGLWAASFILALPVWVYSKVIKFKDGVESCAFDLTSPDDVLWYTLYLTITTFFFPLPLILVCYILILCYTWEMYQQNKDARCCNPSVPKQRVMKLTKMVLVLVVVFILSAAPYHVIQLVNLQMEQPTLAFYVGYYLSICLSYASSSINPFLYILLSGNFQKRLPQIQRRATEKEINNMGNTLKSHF
Protocol: as §1, §2

[8] = target: MRGX2 (Homo sapiens, UniProt Q96LB1); assay: cell-based
Chain of MRGX2 (Q96LB1 whole entry): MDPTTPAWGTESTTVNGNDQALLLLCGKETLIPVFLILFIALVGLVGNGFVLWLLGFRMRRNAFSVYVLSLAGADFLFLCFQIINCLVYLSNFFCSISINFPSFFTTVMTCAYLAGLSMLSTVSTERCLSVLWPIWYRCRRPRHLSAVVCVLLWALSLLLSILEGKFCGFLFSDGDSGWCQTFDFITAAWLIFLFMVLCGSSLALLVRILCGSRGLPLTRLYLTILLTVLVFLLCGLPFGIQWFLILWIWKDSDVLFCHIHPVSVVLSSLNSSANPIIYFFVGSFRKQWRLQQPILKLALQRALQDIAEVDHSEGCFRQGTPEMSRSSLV
Protocol: as §1, §2

[9] = target: NK2 (Homo sapiens, UniProt P21452); assay: cell-based
Chain of NK2 (P21452 whole entry): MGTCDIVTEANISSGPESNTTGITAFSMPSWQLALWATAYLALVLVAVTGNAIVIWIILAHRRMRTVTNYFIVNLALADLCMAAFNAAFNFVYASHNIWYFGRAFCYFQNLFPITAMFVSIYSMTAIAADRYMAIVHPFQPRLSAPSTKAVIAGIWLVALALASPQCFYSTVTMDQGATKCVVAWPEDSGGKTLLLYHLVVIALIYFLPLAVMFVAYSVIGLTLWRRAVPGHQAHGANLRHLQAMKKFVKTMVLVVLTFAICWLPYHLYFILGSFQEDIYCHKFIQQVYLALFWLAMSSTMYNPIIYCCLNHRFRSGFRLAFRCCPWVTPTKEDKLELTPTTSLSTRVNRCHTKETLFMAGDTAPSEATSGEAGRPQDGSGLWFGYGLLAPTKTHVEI
Protocol: as §1, §2

[10] = target: Motilin (Homo sapiens, UniProt O43193); assay: cell-based
Chain of Motilin (O43193 whole entry): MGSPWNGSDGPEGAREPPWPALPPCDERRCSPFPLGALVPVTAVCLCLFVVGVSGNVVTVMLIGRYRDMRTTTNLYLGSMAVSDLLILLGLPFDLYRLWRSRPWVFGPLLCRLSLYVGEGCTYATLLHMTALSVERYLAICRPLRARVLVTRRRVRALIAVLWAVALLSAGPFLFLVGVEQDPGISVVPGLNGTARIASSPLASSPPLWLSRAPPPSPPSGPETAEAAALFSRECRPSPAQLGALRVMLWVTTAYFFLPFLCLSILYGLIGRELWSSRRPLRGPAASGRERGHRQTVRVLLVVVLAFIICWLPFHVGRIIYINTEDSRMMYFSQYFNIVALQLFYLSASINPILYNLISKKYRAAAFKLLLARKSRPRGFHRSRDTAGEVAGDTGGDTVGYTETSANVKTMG
Protocol: as §1, §2

[11] = target: MRGX1 (Homo sapiens, UniProt Q96LB2); assay: cell-based
Protocol: as §1, §2

[12] = target: NPBW1 (Homo sapiens, UniProt P48145); assay: cell-based
Protocol: as §1, §2

[13] = target: NK1 (Homo sapiens, UniProt P25103); assay: cell-based
Chain of NK1 (P25103 whole entry): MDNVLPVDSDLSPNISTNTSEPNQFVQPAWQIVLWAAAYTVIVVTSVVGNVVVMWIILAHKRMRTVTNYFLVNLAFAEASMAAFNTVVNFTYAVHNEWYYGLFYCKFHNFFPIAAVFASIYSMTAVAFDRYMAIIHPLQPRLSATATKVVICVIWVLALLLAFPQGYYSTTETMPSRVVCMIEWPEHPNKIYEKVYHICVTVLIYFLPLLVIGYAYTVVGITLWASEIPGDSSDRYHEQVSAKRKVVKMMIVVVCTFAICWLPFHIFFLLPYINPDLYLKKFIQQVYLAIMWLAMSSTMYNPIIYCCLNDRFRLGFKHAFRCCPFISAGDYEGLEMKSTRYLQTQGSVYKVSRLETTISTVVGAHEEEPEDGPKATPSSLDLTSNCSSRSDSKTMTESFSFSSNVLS
Protocol: as §1, §2

[14] = target: GPCR109a (Homo sapiens, UniProt Q8TDS4); assay: cell-based
Chain of GPCR109a (Q8TDS4 whole entry): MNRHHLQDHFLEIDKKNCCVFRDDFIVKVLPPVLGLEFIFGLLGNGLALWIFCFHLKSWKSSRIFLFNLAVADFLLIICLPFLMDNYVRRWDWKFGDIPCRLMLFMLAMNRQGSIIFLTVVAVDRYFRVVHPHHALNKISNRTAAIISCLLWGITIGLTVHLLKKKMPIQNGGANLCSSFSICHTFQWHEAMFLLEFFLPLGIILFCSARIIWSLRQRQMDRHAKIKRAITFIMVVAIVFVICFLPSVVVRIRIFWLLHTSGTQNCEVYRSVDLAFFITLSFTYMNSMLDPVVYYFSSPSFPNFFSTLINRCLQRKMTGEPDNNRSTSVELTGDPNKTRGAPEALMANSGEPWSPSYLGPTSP
Protocol: as §1, §2

[15] = target: NMUR1 (Homo sapiens, UniProt Q9HB89); assay: cell-based
Chain of NMUR1 (Q9HB89 whole entry): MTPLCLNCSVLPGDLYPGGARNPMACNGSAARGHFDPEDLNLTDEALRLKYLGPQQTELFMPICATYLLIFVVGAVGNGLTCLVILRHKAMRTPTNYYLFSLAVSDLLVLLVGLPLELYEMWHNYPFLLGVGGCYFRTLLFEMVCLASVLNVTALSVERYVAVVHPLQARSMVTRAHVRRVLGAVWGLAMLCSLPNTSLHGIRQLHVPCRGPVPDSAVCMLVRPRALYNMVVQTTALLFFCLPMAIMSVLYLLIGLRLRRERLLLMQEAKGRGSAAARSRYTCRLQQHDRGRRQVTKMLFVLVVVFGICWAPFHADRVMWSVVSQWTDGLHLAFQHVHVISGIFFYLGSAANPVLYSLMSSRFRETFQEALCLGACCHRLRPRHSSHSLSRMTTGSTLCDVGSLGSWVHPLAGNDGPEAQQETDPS
Protocol: as §1, §2

[16] = target: NMUR2 (Homo sapiens, UniProt Q9GZQ4); assay: cell-based
Chain of NMUR2 (Q9GZQ4 whole entry): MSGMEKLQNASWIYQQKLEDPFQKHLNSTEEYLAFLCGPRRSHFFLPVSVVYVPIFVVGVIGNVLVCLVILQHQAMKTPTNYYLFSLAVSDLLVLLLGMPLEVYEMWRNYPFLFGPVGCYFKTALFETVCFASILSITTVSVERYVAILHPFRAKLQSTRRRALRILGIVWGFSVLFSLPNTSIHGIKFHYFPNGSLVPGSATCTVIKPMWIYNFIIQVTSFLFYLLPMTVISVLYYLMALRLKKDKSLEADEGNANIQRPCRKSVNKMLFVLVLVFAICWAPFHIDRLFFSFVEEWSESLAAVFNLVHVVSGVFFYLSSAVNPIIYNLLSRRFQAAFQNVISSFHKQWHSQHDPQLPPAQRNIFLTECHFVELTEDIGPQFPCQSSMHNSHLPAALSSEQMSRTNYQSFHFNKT
Protocol: as §1, §2

[17] = target: GPCR40 (Homo sapiens, UniProt O14842); assay: cell-based
Chain of GPCR40 (O14842 whole entry): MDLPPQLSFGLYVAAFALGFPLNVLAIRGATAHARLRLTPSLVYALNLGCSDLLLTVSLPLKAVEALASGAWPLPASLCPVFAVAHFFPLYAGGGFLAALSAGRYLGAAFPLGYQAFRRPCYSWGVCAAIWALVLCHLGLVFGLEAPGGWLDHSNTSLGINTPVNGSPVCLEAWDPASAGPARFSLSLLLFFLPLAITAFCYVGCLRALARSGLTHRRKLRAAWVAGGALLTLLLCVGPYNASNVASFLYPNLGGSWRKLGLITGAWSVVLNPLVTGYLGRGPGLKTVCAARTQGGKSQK
Protocol: as §1, §2

[18] = read-out: percent activation compared to standards, DT-110 @ 1.25 mM, Avg.
[19] = read-out: percent activation compared to standards, DT-110 @ 1.25 mM, n1
[20] = read-out: percent activation compared to standards, DT-110 @ 1.25 mM, n2
[21] = read-out: percent activation compared to standards, DT-110 @ 12.5 mM, Avg.
[22] = read-out: percent activation compared to standards, DT-110 @ 12.5 mM, n1
[23] = read-out: percent activation compared to standards, DT-110 @ 12.5 mM, n2

Q: Which “eNOS mRNA levels” value ([1]; 30 minutes, vs control) does the source give for `CC(C)C[C@@H](NC(=O)CNC(=O)CN)C(=O)O` here?
A: the same

Q: And the eNOS expression ([1]; 60 minutes)?
A: increased eNOS expression

Q: And the eNOS expression ([1]; 120 minutes)?
A: increased eNOS expression

Q: And the activation at 1250 µM [2, 18]?
A: 0.4%

Q: And the activation at 1250 µM [2, 19]?
A: 0.2%

Q: And the activation at 1250 µM [2, 20]?
A: 0.7%

Q: And the activation at 12500 µM [2, 21]?
A: -0.1%

Q: And the activation at 12500 µM [2, 22]?
A: -0.5%

Q: And the activation at 12500 µM [2, 23]?
A: 0.3%

Q: What about the activation at 1250 µM [3, 18] of the same molecule?
A: 69.2%

Q: What about the activation at 1250 µM [3, 19] of the same molecule?
A: 76.5%

Q: And the activation at 1250 µM [3, 20]?
A: 62%

Q: And the activation at 12500 µM [3, 21]?
A: 64.5%

Q: And the activation at 12500 µM [3, 22]?
A: 60.7%

Q: What about the activation at 12500 µM [3, 23] of the same molecule?
A: 68.3%

Q: What about the activation at 1250 µM [4, 18] of the same molecule?
A: -0.1%

Q: And the activation at 1250 µM [4, 19]?
A: -7.8%

Q: And the activation at 1250 µM [4, 20]?
A: 7.6%

Q: What about the activation at 12500 µM [4, 21] of the same molecule?
A: -2.3%

Q: What about the activation at 12500 µM [4, 22] of the same molecule?
A: 3.4%

Q: And the activation at 12500 µM [4, 23]?
A: -8%

Q: What about the activation at 1250 µM [5, 18] of the same molecule?
A: -0.7%

Q: What about the activation at 1250 µM [5, 19] of the same molecule?
A: 0.6%

Q: What about the activation at 1250 µM [5, 20] of the same molecule?
A: -2%

Q: What about the activation at 12500 µM [5, 21] of the same molecule?
A: -1%

Q: What about the activation at 12500 µM [5, 22] of the same molecule?
A: -1%

Q: And the activation at 12500 µM [5, 23]?
A: -0.9%

Q: And the activation at 1250 µM [6, 18]?
A: 0%

Q: What about the activation at 1250 µM [6, 19] of the same molecule?
A: 0.7%

Q: What about the activation at 1250 µM [6, 20] of the same molecule?
A: -0.8%

Q: And the activation at 12500 µM [6, 21]?
A: -0.3%

Q: And the activation at 12500 µM [6, 22]?
A: -0.6%

Q: And the activation at 12500 µM [6, 23]?
A: 0%

Q: And the activation at 1250 µM [7, 18]?
A: 0.5%

Q: What about the activation at 1250 µM [7, 19] of the same molecule?
A: 0.1%

Q: And the activation at 1250 µM [7, 20]?
A: 0.8%

Q: What about the activation at 12500 µM [7, 21] of the same molecule?
A: -0.9%

Q: What about the activation at 12500 µM [7, 22] of the same molecule?
A: -0.8%

Q: And the activation at 12500 µM [7, 23]?
A: -0.9%

Q: And the activation at 1250 µM [8, 18]?
A: -0.2%

Q: What about the activation at 1250 µM [8, 19] of the same molecule?
A: 0%

Q: What about the activation at 1250 µM [8, 20] of the same molecule?
A: -0.4%

Q: And the activation at 12500 µM [8, 21]?
A: 0%

Q: What about the activation at 12500 µM [8, 22] of the same molecule?
A: 0.4%

Q: And the activation at 12500 µM [8, 23]?
A: -0.4%

Q: What about the activation at 1250 µM [9, 18] of the same molecule?
A: -9.5%

Q: And the activation at 1250 µM [9, 19]?
A: -9.4%

Q: What about the activation at 1250 µM [9, 20] of the same molecule?
A: -9.6%

Q: What about the activation at 12500 µM [9, 21] of the same molecule?
A: -9.6%

Q: And the activation at 12500 µM [9, 22]?
A: -9.5%

Q: And the activation at 12500 µM [9, 23]?
A: -9.7%

Q: And the activation at 1250 µM [10, 18]?
A: -0.3%

Q: What about the activation at 1250 µM [10, 19] of the same molecule?
A: -0.3%

Q: And the activation at 1250 µM [10, 20]?
A: -0.3%

Q: What about the activation at 12500 µM [10, 21] of the same molecule?
A: -0.4%

Q: And the activation at 12500 µM [10, 22]?
A: -0.3%

Q: What about the activation at 12500 µM [10, 23] of the same molecule?
A: -0.5%

Q: What about the activation at 1250 µM [11, 18] of the same molecule?
A: -1.9%

Q: And the activation at 1250 µM [11, 19]?
A: -1.3%

Q: And the activation at 1250 µM [11, 20]?
A: -2.5%

Q: And the activation at 12500 µM [11, 21]?
A: -6.6%

Q: What about the activation at 12500 µM [11, 22] of the same molecule?
A: -6.7%

Q: What about the activation at 12500 µM [11, 23] of the same molecule?
A: -6.6%

Q: What about the activation at 1250 µM [12, 18] of the same molecule?
A: 0.2%

Q: And the activation at 1250 µM [12, 19]?
A: 1.6%

Q: What about the activation at 1250 µM [12, 20] of the same molecule?
A: -1.1%

Q: And the activation at 12500 µM [12, 21]?
A: -0.9%

Q: And the activation at 12500 µM [12, 22]?
A: -0.8%

Q: And the activation at 12500 µM [12, 23]?
A: -0.9%

Q: And the activation at 1250 µM [13, 18]?
A: -0.9%

Q: What about the activation at 1250 µM [13, 19] of the same molecule?
A: -1%

Q: And the activation at 1250 µM [13, 20]?
A: -0.9%

Q: And the activation at 12500 µM [13, 21]?
A: -1.1%

Q: And the activation at 12500 µM [13, 22]?
A: -1%

Q: What about the activation at 12500 µM [13, 23] of the same molecule?
A: -1.1%

Q: What about the activation at 1250 µM [14, 18] of the same molecule?
A: -8.1%

Q: And the activation at 1250 µM [14, 19]?
A: -8.1%

Q: What about the activation at 1250 µM [14, 20] of the same molecule?
A: -8%

Q: And the activation at 12500 µM [14, 21]?
A: 54.3%

Q: What about the activation at 12500 µM [14, 22] of the same molecule?
A: 52.9%

Q: And the activation at 12500 µM [14, 23]?
A: 55.7%

Q: What about the activation at 1250 µM [15, 18] of the same molecule?
A: 0.5%

Q: And the activation at 1250 µM [15, 19]?
A: 1.3%

Q: What about the activation at 1250 µM [15, 20] of the same molecule?
A: -0.4%

Q: And the activation at 12500 µM [15, 21]?
A: -0.1%

Q: And the activation at 12500 µM [15, 22]?
A: -0.7%

Q: And the activation at 12500 µM [15, 23]?
A: 0.5%

Q: What about the activation at 1250 µM [16, 18] of the same molecule?
A: 2.4%

Q: And the activation at 1250 µM [16, 19]?
A: 0.9%

Q: And the activation at 1250 µM [16, 20]?
A: 3.9%

Q: What about the activation at 12500 µM [16, 21] of the same molecule?
A: -0.9%

Q: And the activation at 12500 µM [16, 22]?
A: 0.4%

Q: And the activation at 12500 µM [16, 23]?
A: -2.2%

Q: And the activation at 1250 µM [17, 18]?
A: -9.5%

Q: And the activation at 1250 µM [17, 19]?
A: -9.3%

Q: And the activation at 1250 µM [17, 20]?
A: -9.6%

Q: What about the activation at 12500 µM [17, 21] of the same molecule?
A: 50.2%

Q: What about the activation at 12500 µM [17, 22] of the same molecule?
A: 55.9%

Q: And the activation at 12500 µM [17, 23]?
A: 44.5%
